Here are results for 1 compound from patent US20090005407A1, “PARTICULATE (3'-CHLOROBIPHENYL-4-YL)(1-(PYRIMIDIN-2-YL)PIPERIDIN-4-YL)METHANONE AND METHODS OF ITS USE” (priority 2007, published 2009).

For one series, the system named is mice. The conditions noted are these: administered to mice; see U.S. Ser. Nos. 11/433,057 and 11/433,626; cited from earlier work.
Another series can be described thus: water solubility. The series is classed as physicochemical.

`O=C(c1ccc(-c2cccc(Cl)c2)cc1)C1CCN(c2ncccn2)CC1` [(3′-chlorobiphenyl-4-yl)(1-(pyrimidin-2-yl)piperidin-4-yl)methanone]: in the series on mice, the “effect on learning and memory” value was “increase learning and memory”. In the series “water solubility”, the water solubility entry is “poorly water soluble”.
